Patent publication US20070224657A1, “Distribution of PON1 as a marker of lipid related disorders” (priority 2006, published 2007)
Like-named read-outs stand apart in the source and are kept apart here.

Columns and labels:
PON1 [1] = biological target: T1, PON1 (Homo sapiens, UniProt P27169); details: inhibitor 200 μM
Description: Arylesterase activity: Arylesterase activity was determined using 5 μl serum or 10 μl of the HDL or LPDS fraction in a total volume of 1 ml of 50 mM Tris-HCL, pH 8.0 containing 1 mM CaCl2 and 1 mM phenyl acetate. The increase in OD at 270 nm was monitored for 1 minute. One unit is defined as 1 μmol of phenyl actetate hydrolyzed per ml per minute (26).

PON1 [2] = biological target: T1, PON1; details: inhibitor or antibody (diluted 1:10, v:v) added to the fractions; data not shown
J774 A.1 macrophages = assay: Macrophage cholesterol efflux mediated by HDL or LPDS; format: cell-based, murine; details: Mus musculus
Description: HDL and LPDS were isolated from 3 healthy subjects by ultracentrifugation. […] The cells were also incubated with HDL or LPDS fractions that were preincubated for 1 hour at 37° C. with the PON1 inhibitor 2-hydroxyquinoline (200 μM), or with HDL and LPDS that were enriched with evolved PON1 (50 paraoxonase U/ml). HDL or LPDS-mediated cholesterol efflux was then determined. Results are given as mean±S.D of three different experiments *p<0.01 vs. HDL, #p<0.01 vs. LPDS.
Cells: J774 A.1 murine macrophage cells were purchased from the American Tissue Culture Collection (ATCC, Rockville, Md.). The cells were grown in Dulbecco's modified Eagle's medium (DMEM) containing 5% FCS and 100 U penicillin/ml, 100 μg streptomycin/ml, and 2 mM glutamine.
Macrophage Cholesterol efflux determination: J774 A.1 macrophages were incubated with [^3H]-labeled cholesterol (2 μCi/ml) for 1 hour at 37° C., followed by cell wash in ice-cold PBS (×3) and a further incubation in the absence or presence of HDL or LPDS (5 paraoxonase units/ml)) for 3 hours at 37° C. […] Cellular and medium [^3H]-labeled cholesterol was quantitated and the percentage of cholesterol efflux was calculated [the ratio of [^3H]-label in the medium*100/([^3H]-label in the medium+[^3H]-label in the cells), 18]. […]

T1 sequence (P27169 whole entry): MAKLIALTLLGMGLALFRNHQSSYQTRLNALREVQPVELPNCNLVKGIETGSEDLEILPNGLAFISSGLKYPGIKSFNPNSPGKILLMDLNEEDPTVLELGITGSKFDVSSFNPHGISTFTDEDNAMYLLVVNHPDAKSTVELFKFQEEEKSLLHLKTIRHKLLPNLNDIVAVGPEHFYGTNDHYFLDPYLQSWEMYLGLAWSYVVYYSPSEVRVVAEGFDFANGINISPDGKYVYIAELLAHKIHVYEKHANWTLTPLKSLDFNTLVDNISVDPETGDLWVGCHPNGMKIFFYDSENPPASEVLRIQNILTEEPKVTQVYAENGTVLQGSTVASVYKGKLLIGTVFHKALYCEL

In the case of Oc1ccc2ccccc2n1 [2-hydroxyquinoline], the “reduction in HDL arylesterase activity” value (PON1 [1]; HDL fraction) was 60%, the “HDL arylesterase activity with inhibitor” value (PON1 [1]; HDL fraction, without inhibitor 22.4±1.5) was 9.0±1.0 units/ml and the “reduction in LPDS arylesterase activity” value (PON1 [1]; LPDS fraction) was 76%. For the same compound, the “LPDS arylesterase activity with inhibitor” value (PON1 [1]; LPDS fraction, without inhibitor 2.9±0.5) was 0.7±0.7 units/ml, the “paraoxonase activities in HDL and LPDS” value (PON1 [2]) was “significantly reduced” and the inhibition at 200 µM (J774 A.1 macrophages; J774.A1, read-out: reduction of cholesterol efflux by HDL preincubated with the inhibitor) was 25%. The inhibition at 200 µM (J774 A.1 macrophages; J774.A1, inhibitor 200 μM, vs non-treated LPDS, read-out: reduction of cholesterol efflux by LPDS preincubated with the inhibitor) was 10%.
